pIC50: −log10 of the molar value.
Assays:
KRAS = KRAS inhibition, assay not specified (at least one assay described herein); details: Peak 1 versus Peak 2 of prep. LCMS; assay not stated
KRAS G12D = KRAS G12D (Homo sapiens, UniProt P01116, G12D); experiment: GDP-GTP exchange assay (bodipy-GDP/GppNHp, SOS1), KRAS G12D; type: biochemical; details: Table H, column G12D; for compounds isolated as several atropisomers/diastereoisomers the value for the most potent isomer is quoted; read-out: KRAS G12D exchange assay IC50
KRAS G12V = KRAS G12V (Homo sapiens, UniProt P01116, G12V); experiment: GDP-GTP exchange assay (bodipy-GDP/GppNHp, SOS1), KRAS G12V; type: biochemical; details: Table H, column G12V; for compounds isolated as several atropisomers/diastereoisomers the value for the most potent isomer is quoted; read-out: KRAS G12V exchange assay IC50
Caco-2 cells = experiment: Caco2 assay (Papp A-B); type: in vitro ADME; details: test compound 50 μM, 120 min, 37° C.
Summary of the method: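 Caco-2 monolayers grown 22–25 days on Transwells (TEER 300 Ω·cm^2) were dosed apically with 50 μM compound in HBSS; basolateral receiver held HBSS with 4% BSA. Incubation 120 min at 37° C, 5% CO2; donor and receiver samples quantified by LCMS and Papp A-B calculated from receiver-side cumulative flux slope.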

Chain of KRAS G12D (P01116 1-188 isoform P01116-2 G12D): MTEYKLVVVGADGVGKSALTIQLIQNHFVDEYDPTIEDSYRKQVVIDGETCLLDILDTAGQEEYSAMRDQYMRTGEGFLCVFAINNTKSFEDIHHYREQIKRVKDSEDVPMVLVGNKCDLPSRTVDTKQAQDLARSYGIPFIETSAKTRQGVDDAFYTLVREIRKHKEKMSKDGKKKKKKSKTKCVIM
Chain of KRAS G12V (P01116 1-188 isoform P01116-2 G12V): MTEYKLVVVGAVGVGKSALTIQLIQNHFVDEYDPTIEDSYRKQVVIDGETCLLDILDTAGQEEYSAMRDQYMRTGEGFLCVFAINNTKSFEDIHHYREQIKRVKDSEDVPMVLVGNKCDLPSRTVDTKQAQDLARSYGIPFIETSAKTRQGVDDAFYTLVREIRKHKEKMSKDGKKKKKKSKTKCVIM

Row | pIC50 (KRAS G12D) | pIC50 (KRAS G12V) | Caco-2 (Caco-2 cells) | SMILES | potency of the separated diastereoisomer (atropisomer) in words (KRAS)
1 | – | – | – | C[C@@H](O)c1nc2c(F)c(-c3cccc(Cl)c3Cl)c(CCC#N)cc2c2c1cc([C@H]1[C@H](O)[C@H](Oc3ccccn3)CN1C(=O)C1CC1)n2[C@H]1[C@H]2CN[C@@H]1C2 (single isomer, unassigned) | potent
2 | – | – | – | Cc1nc2c(F)c(-c3cccc(Cl)c3Cl)c(CCC#N)cc2c2c1cc([C@H]1C[C@H](OC3(C)CCC3)CN1C(=O)C1CC1)n2[C@H]1[C@H]2CN[C@@H]1C2 (single isomer, unassigned) [Example 78, Diastereomer 1 (Peak 1)] | potent
3 | – | – | – | COc1cc(O[C@H]2C[C@H](c3cc4c([C@@H](C)O)nc5c(F)c(-c6cccc(Cl)c6Cl)c(CCC#N)cc5c4n3[C@H]3[C@H]4CN[C@@H]3C4)N(C(=O)C3CC3)[C@@H]2C)c(F)cn1 (single isomer, unassigned) [Example 51, Diastereomer 1 (Peak 1)] | potent
4 | – | – | – | C[C@@H]1[C@@H](Oc2c(F)ccnc2Cl)C[C@H](c2cc3c([C@@H](C)O)nc4c(F)c(-c5cccc(Cl)c5Cl)c(CCC#N)cc4c3n2[C@H]2[C@H]3CN[C@@H]2C3)N1C(=O)C1CC1 (single isomer, unassigned) [Example 64, Diastereomer 1 (Peak 1)] | potent
5 | – | – | – | [2H]C([2H])([2H])O[C@H]1CC[C@@H]1O[C@H]1C[C@H](c2cc3c(C)nc4c(F)c(-c5cccc(Cl)c5Cl)c(CCC#N)cc4c3n2[C@H]2[C@H]3CN[C@@H]2C3)N(C(=O)C2CC2)C1 (single isomer, unassigned) [Example 80, Diastereomer 1 (Peak 1)] | potent
6 | – | – | – | Cc1nc2c(F)c(-c3cccc(Cl)c3Cl)c(CCC#N)cc2c2c1cc([C@H]1C[C@H](OC(F)(F)c3ccccc3)CN1C(=O)C1CC1)n2[C@H]1[C@H]2CN[C@@H]1C2 (single isomer, unassigned) [Example 79, Diastereomer 1 (Peak 1)] | potent
7 | – | – | – | C[C@@H](O)c1nc2c(F)c(-c3cccc(Cl)c3Cl)c(CCC#N)cc2c2c1cc([C@H]1[C@@H](F)[C@H](Oc3ccccn3)CN1C(=O)C1CC1)n2[C@H]1[C@H]2CN[C@@H]1C2 (single isomer, unassigned) | potent
8 | – | – | – | COc1nccc(O[C@H]2C[C@H](c3cc4c([C@@H](C)O)nc5c(F)c(-c6cccc(Cl)c6Cl)c(CCC#N)cc5c4n3[C@H]3[C@H]4CN[C@@H]3C4)N(C(=O)C3CC3)C2)c1F (single isomer, unassigned) [Example 53, Diastereomer 1 (Peak 1)] | potent
9 | – | – | – | C[C@@H]1[C@@H](Oc2cc(F)ccn2)C[C@H](c2cc3c([C@@H](C)O)nc4c(F)c(-c5cccc(Cl)c5Cl)c(CCC#N)cc4c3n2[C@H]2[C@H]3CN[C@@H]2C3)N1C(=O)C1CC1 (single isomer, unassigned) [Example 63, Diastereomer 1 (Peak 1)] | potent
10 | – | – | – | CC[C@@H]1[C@@H](Oc2cc(OC)ncc2F)C[C@H](c2cc3c([C@@H](C)O)nc4c(F)c(-c5cccc(Cl)c5Cl)c(CCC#N)cc4c3n2[C@H]2[C@H]3CN[C@@H]2C3)N1C(=O)C1CC1 (single isomer, unassigned) [Example 82, Diastereomer 1 (Peak 1)] | potent
11 | – | – | – | CC(O)c1nc2c(F)c(-c3cccc(Cl)c3Cl)c(CCC#N)cc2c2c1cc([C@H]1C[C@H](OCc3ccc(F)cc3C#N)CN1C(=O)C1(C)CC1)n2[C@H]1[C@H]2CN[C@@H]1C2 (single isomer, unassigned) [Example 35, Diastereomer 1 (Peak 1)] | potent
12 | ≥ 7.00 | ≥ 7.00 | + (a Caco-2 value of ≤0.5) | COc1cc(O[C@H]2C[C@H](c3cc4c([C@@H](C)O)nc5c(F)c(-c6cccc(Cl)c6Cl)c(CCC#N)cc5c4n3[C@H]3[C@H]4CN[C@@H]3C4)N(C(=O)C3(C)CC3)[C@@H]2C)c(F)cn1 [Example 52, 3-(1-((1R,4R,5S)-2-Azabicyclo[2.1.1]hexan-5-yl)-7-(2,3-dichlorophenyl)-6-fluoro-2-((2R,4S,5R)-4-((5-fluoro-2-methoxypyridin-4-yl)oxy)-5-methyl-1-(1-methylcyclopropane-1-carbonyl)pyrrolidin-2-yl)-4-((R)-1-hydroxyethyl)-1H-pyrrolo[3,2-c]quinolin-8-yl)propanenitrile] | –
13 | ≥ 7.00 | ≥ 7.00 | + (a Caco-2 value of ≤0.5) | COc1cc(O[C@H]2C[C@H](c3cc4c([C@@H](C)O)nc5c(F)c(-c6cccc(Cl)c6Cl)c(CCC#N)cc5c4n3[C@H]3[C@H]4CN[C@@H]3C4)N(C(=O)C3CC3)[C@@H]2C)c(F)cn1 [Example 51, 3-(1-((1R,4R,5S)-2-Azabicyclo[2.1.1]hexan-5-yl)-2-((2R,4S,5R)-1-(cyclopropanecarbonyl)-4-((5-fluoro-2-methoxypyridin-4-yl)oxy)-5-methylpyrrolidin-2-yl)-7-(2,3-dichlorophenyl)-6-fluoro-4-((R)-1-hydroxyethyl)-1H-pyrrolo[3,2-c]quinolin-8-yl)propanenitrile] | –
14 | ≥ 7.00 | ≥ 7.00 | + (a Caco-2 value of ≤0.5) | C[C@@H](O)c1nc2c(F)c(-c3cccc(Cl)c3Cl)c(CCC#N)cc2c2c1cc([C@H]1C[C@H](Oc3cc(C4CC4)on3)CN1C(=O)C1CC1)n2[C@H]1[C@H]2CN[C@@H]1C2 [Example 77, 3-(1-((1R,4R,5S)-2-Azabicyclo[2.1.1]hexan-5-yl)-2-((2R,4S)-1-(cyclopropanecarbonyl)-4-((5-cyclopropylisoxazol-3-yl)oxy)pyrrolidin-2-yl)-7-(2,3-dichlorophenyl)-6-fluoro-4-((R)-1-hydroxyethyl)-1H-pyrrolo[3,2-c]quinolin-8-yl)propanenitrile] | –
15 | ≥ 7.00 | ≥ 7.00 | +++ (a Caco-2 value of >1) | Cc1nc2c(F)c(-c3cccc(Cl)c3Cl)c(CCC#N)cc2c2c1cc([C@H]1C[C@H](Oc3cc(F)ccn3)CN1C(=O)C1CC1)n2[C@H]1[C@H]2CN[C@@H]1C2 [Example 56, 3-(1-((1R,4R,5S)-2-Azabicyclo[2.1.1]hexan-5-yl)-2-((2R,4S)-1-(cyclopropanecarbonyl)-4-((4-fluoropyridin-2-yl)oxy)pyrrolidin-2-yl)-7-(2,3-dichlorophenyl)-6-fluoro-4-methyl-1H-pyrrolo[3,2-c]quinolin-8-yl)propanenitrile] | –
16 | ≥ 7.00 | ≥ 7.00 | +++ (a Caco-2 value of >1) | C[C@@H]1[C@@H](Oc2c(F)ccnc2Cl)C[C@H](c2cc3c([C@@H](C)O)nc4c(F)c(-c5cccc(Cl)c5Cl)c(CCC#N)cc4c3n2[C@H]2[C@H]3CN[C@@H]2C3)N1C(=O)C1CC1 [Example 64, 3-(1-((1R,4R,5S)-2-Azabicyclo[2.1.1]hexan-5-yl)-2-((2R,4S,5R)-4-((2-chloro-4-fluoropyridin-3-yl)oxy)-1-(cyclopropanecarbonyl)-5-methylpyrrolidin-2-yl)-7-(2,3-dichlorophenyl)-6-fluoro-4-((R)-1-hydroxyethyl)-1H-pyrrolo[3,2-c]quinolin-8-yl)propanenitrile] | –
17 | ≥ 7.00 | ≥ 7.00 | + (a Caco-2 value of ≤0.5) | Cc1nc2c(F)c(-c3cccc(Cl)c3Cl)c(CCC#N)cc2c2c1cc([C@H]1C[C@H](Oc3cnn(C)c3C#N)CN1C(=O)C1CC1)n2[C@H]1[C@H]2CN[C@@H]1C2 [Example 46, 4-(((3S,5R)-5-(1-((1R,4R,5S)-2-Azabicyclo[2.1.1]hexan-5-yl)-8-(2-cyanoethyl)-7-(2,3-dichlorophenyl)-6-fluoro-4-methyl-1H-pyrrolo[3,2-c]quinolin-2-yl)-1-(cyclopropanecarbonyl)pyrrolidin-3-yl)oxy)-1-methyl-1H-pyrazole-5-carbonitrile] | –
18 | ≥ 7.00 | ≥ 7.00 | ++ (a Caco-2 value of >0.5 but ≤1) | Cc1nc2c(F)c(-c3cccc(Cl)c3Cl)c(CCC#N)cc2c2c1cc([C@H]1C[C@H](OCc3cccc(C(F)(F)F)n3)CN1C(=O)C1CC1)n2[C@H]1[C@H]2CN[C@@H]1C2 [Example 10] | –
19 | ≥ 7.00 | ≥ 7.00 | + (a Caco-2 value of ≤0.5) | Cc1nonc1CO[C@H]1C[C@H](c2cc3c(C)nc4c(F)c(-c5cccc(Cl)c5Cl)c(CCC#N)cc4c3n2[C@H]2[C@H]3CN[C@@H]2C3)N(C(=O)C2CC2)C1 [Example 33] | –
20 | ≥ 7.00 | ≥ 7.00 | + (a Caco-2 value of ≤0.5) | COc1cc(O[C@H]2C[C@H](c3cc4c(C)nc5c(F)c(-c6cccc(Cl)c6Cl)c(CCC#N)cc5c4n3[C@H]3[C@H]4CN[C@@H]3C4)N(C(=O)C3CC3)C2)c(F)cn1 [Example 43, 3-(1-((1R,4R,5S)-2-Azabicyclo[2.1.1]hexan-5-yl)-2-((2R,4S)-1-(cyclopropanecarbonyl)-4-((5-fluoro-2-methoxypyridin-4-yl)oxy)pyrrolidin-2-yl)-7-(2,3-dichlorophenyl)-6-fluoro-4-methyl-1H-pyrrolo[3,2-c]quinolin-8-yl)propanenitrile] | –

Row | SMILES | pIC50 (KRAS G12D) | pIC50 (KRAS G12V) | Caco-2 (Caco-2 cells) | potency of the separated diastereoisomer (atropisomer) in words (KRAS)
21 | Cc1nc2c(F)c(-c3cccc(Cl)c3Cl)c(CCC#N)cc2c2c1cc([C@H]1C[C@H](OC3(C)CCC3)CN1C(=O)C1CC1)n2[C@H]1[C@H]2CN[C@@H]1C2 [Example 78, 3-(1-((1R,4R,5S)-2-Azabicyclo[2.1.1]hexan-5-yl)-2-((2R,4S)-1-(cyclopropanecarbonyl)-4-(1-methylcyclobutoxy)pyrrolidin-2-yl)-7-(2,3-dichlorophenyl)-6-fluoro-4-methyl-1H-pyrrolo[3,2-c]quinolin-8-yl)propanenitrile] | ≥ 7.00 | ≥ 7.00 | +++ (a Caco-2 value of >1) | –
